{"source": "patent US10888092B2", "about": "“Ether amines for enhanced sporicidal performance” (Ecolab USA Inc., priority 2016, dated 2021)", "key": {"[1]": {"test_system": "bacterial spores", "assay": "Fabric swatches (ASTM E2274-09 protocol), simultaneous treatment (Example 5)", "format": "cell-based", "conditions": "TABLE 7, exposure 10 minutes", "experimental": "(§1) Various ether amines were tested for their efficiency in eradicating bacterial spores from fabric swatches. The fabric swatches were treated according to ASTM protocol for evaluating laundry sanitizers and disinfectants (ASTM E2274-09). The ASTM protocol provides more realistic conditions for laundering textiles, where the tested textiles are imbedded within a bundle of fabrics to mimic the ability of the composition to penetrate the fabric with less exposure to the wash solution.\nThree different ether amine solutions were tested: DA-1214 (octyl/decyloxypropyl-1,3-diaminopropane), DA-1618 (dodecylketradecyloxypropyl-1,3-diaminopropane), and PA-14 (isodecyloxypropyl amine). Part I and Part II were both added together at the start of the experiment for a combined exposure time of 10 minutes. The solutions were made into deionized water as described in Example 1, with the pH adjusted to 9.0 by glycolic acid. However, PA-14 was already neutralized to pH 7 with sodium acetate. The log reduction of spores was measured in the wash solution and on the fabric swatch. The reduction of spores was compared to number of spores in the baseline treatment (water only)."}, "[2]": {"test_system": "spores", "assay": "Peracid comparison, ASTM test on fabric swatches (Example 7)", "format": "cell-based", "conditions": "TABLE 9; peracid 200 ppm alone; 10 min at 50° C.", "experimental": "as §1\nThe use of different peracids was tested. Fabric swatches were treated using the ASTM test described in Example 5. Part I was prepared with 100 ppm ether amine (DA-1618). Part II was prepared with 200 ppm of peroxyacetic acid (“POAA”) or peroxyoctanoic acid (“POOA”). When both Part I and Part II were used, the chemicals were added simultaneously. The exposure time was 10 min at 50° C."}, "[3]": {"test_system": "C. Diff. AATCC 43598", "assay": "Fabric swatches, consecutive vs. simultaneous treatment (Example 4)", "format": "cell-based, Clostridium difficile", "conditions": "TABLE 6, ether amine 0 ppm 10 min, peracid 300 ppm 5 minutes", "experimental": "(§2) Cotton fabric swatches (5 mm×5 mm) were inoculated with C. Diff. AATCC 43598 at 35° C. for 48 hours. After inoculation, the swatches were treated with a first solution comprising part I of the composition at 50° C. for a first exposure time; removed from the first solution with sterile forceps and immediately transferred into a second solution comprising part II of the composition for a second exposure time. In comparative treatments, the solutions included only water. After treatment, the number of surviving spores was evaluated, and the log reduction of spores was compared to the comparative treatment (water only).\nConsecutive and simultaneous treatment with low concentration (100 ppm) of ether amine and peracetic acid was tested on fabric squares. The fabric squares were treated as in Example 1 with treatment times of 10 min (part I) and 5 minutes (part II), except with the simultaneous treatment, where ether amine and peracid were mixed prior to treatment and the exposure time was 5 minutes."}, "[4]": {"test_system": "C. Diff. AATCC 43598", "assay": "Glass surface, room temperature (Example 3)", "format": "cell-based, Clostridium difficile", "conditions": "TABLE 5, room temperature (approximately 23° C.), ether amine 0 ppm 10 min, peracid 1000 ppm 5 min", "experimental": "as §2\n(§3) The treatment described above for Example 1 was applied to glass squares (5 mm×5 mm) in a first part of the experiment, where the first exposure time was 10 minutes (part I) and the second exposure time was 5 minutes (part II). In a second part of the experiment, the ether amine and peracid were mixed together prior to treatment, and the exposure time was 15 minutes. Results of the first part of the experiment are shown in TABLE 4A, and of the second part of the experiment in TABLE 4B.\nThe treatment described in Example 2 was repeated at room temperature (“RT,” approximately 23° C.). Part I was prepared with ether amine DA-1214 and Part II with peroxyacetic acid. The exposure times were 10 min for Part I and 5 min for Part II."}, "[5]": {"test_system": "C. Diff. AATCC 43598", "assay": "Fabric swatches, consecutive treatment, spore log reduction (Example 1)", "format": "cell-based, Clostridium difficile", "conditions": "ether amine 0 ppm 10 min, 50° C.", "experimental": "Aqueous solutions of ether amine (Part I) and peracid (Part II) were prepared. Ether amine (octyl/decyloxypropyl-1,3-diaminopropane) solution (Part I) was prepared in deionized water and the pH was adjust to 9.0 using glycolic acid. TOMAMINE DA1214 was used as the ether amine. TOMAMINE DA1214 contains about 50-60% by weight of 1,3-Propanediamine, N-[3-(octylocy)propyl] and about 35-40% by weight of 1,3-Propanediamine, N-[3-(decylocy)propyl], and is available from Air Products and Chemicals, Inc., in Allentown, Pa. Peracid (peracetic acid) solution (Part II) was prepared from TSUNAMI° 100 (15 peracetic acid), available from Ecolab Inc., in St Paul, Minn.\nas §2\nIn Example 1, the first exposure time was 10 minutes (Part I) and the second exposure time was 5 minutes (Part II)."}, "[6]": {"test_system": "C. Diff. AATCC 43598", "assay": "Glass surface, consecutive treatment (Example 2)", "format": "cell-based, Clostridium difficile", "conditions": "TABLE 4A, glass squares, ether amine 0 ppm 10 min", "experimental": "as §2, §3"}, "[7]": {"test_system": "spores", "assay": "Fabric swatches (ASTM E2274), simultaneous treatment, hard water (Example 6)", "format": "cell-based", "conditions": "TABLE 8; 500 ppm synthetic hard water, pH 10.5 prior to peracid addition; ether amine 0 ppm, peracid 200 ppm; 10 minutes", "experimental": "as §1\nTreatment of fabric swatches was tested in pH-adjusted hard water. The wash solution contained 500 ppm synthetic hard water, and the pH was adjusted to 10.5 with NaOH prior to peracid addition. After the addition of the peracid, pH of the wash solution was between 7-8. DA-1214 was used as the ether amine and peracetic acid as the peracid.\nThe log reduction of spores was measured in the wash solution and on the fabric swatch. The reduction of spores was compared to number of spores in the baseline treatment (water only). The combined treatment time was 10 minutes."}, "[8]": {"conditions": "ether amine 100 ppm, peracid 0 ppm"}, "[9]": {"conditions": "ether amine 0 ppm, peracid 200 ppm"}, "[10]": {"conditions": "TABLE 3A, then peracid 300 ppm 5 min"}, "[11]": {"conditions": "TABLE 3A, then peracid 500 ppm 5 min"}, "[12]": {"conditions": "TABLE 3C, then peracid 300 ppm 5 min"}}, "note": "Marks after values point to notes of the source that are not given here.", "data": [{"smiles": "CC(C)CCCCCCCOCCCN", "note": "[PA-14, isodecyloxypropyl amine]", "values": [{"measurement": "Fabric Swatch Log Reduction", "setting": "[1]; [8]", "result": 0.07}, {"measurement": "Wash Solution Log Reduction", "setting": "[1]; [8]", "result": 0.17}]}, {"smiles": "CCCCCCCC(=O)OO", "note": "[POOA, peroxyoctanoic acid]", "values": [{"measurement": "Carrier log reduction", "setting": "[2]", "result": 5.35}, {"measurement": "Wash Solution Log Reduction", "setting": "[2]", "result": "6.00*"}]}, {"smiles": "CC(=O)OO", "note": "[peracid, peracetic acid]", "values": [{"measurement": "Log Reduction", "setting": "[3]", "result": 0.85}, {"measurement": "Fabric Swatch Log Reduction", "setting": "[1]; [9]", "result": 2.65}, {"measurement": "Wash Solution Log Reduction", "setting": "[1]; [9]", "result": 5.33}, {"measurement": "Carrier log reduction", "setting": "[2]", "result": 1.78}, {"measurement": "Wash Solution Log Reduction", "setting": "[2]", "result": 4.40}, {"measurement": "Average Log", "setting": "[4]", "result": ">5.48"}, {"measurement": "Average Survivors", "setting": "[4]", "result": ">300 × 10^3"}, {"measurement": "Log Reduction", "setting": "[4]", "result": "<1.32"}, {"measurement": "Average Log", "setting": "[5]; [10]", "result": 5.36}, {"measurement": "Average Survivors", "setting": "[5]; [10]", "result": "2.3 × 10^5"}, {"measurement": "Log Reduction", "setting": "[5]; [10]", "result": 1.02}, {"measurement": "Average Log", "setting": "[5]; [11]", "result": 3.23}, {"measurement": "Average Survivors", "setting": "[5]; [11]", "result": "1.7 × 10^3"}, {"measurement": "Log Reduction", "setting": "[5]; [11]", "result": 3.15}, {"measurement": "Average Log", "setting": "[5]; [12]", "result": 5.04}, {"measurement": "Average Survivors", "setting": "[5]; [12]", "result": "1.1 × 10^5"}, {"measurement": "Log Reduction", "setting": "[5]; [12]", "result": 0.69}, {"measurement": "Average Log", "setting": "[6]; then peracid 300 ppm 5 min", "result": 5.30}, {"measurement": "Average Survivors", "setting": "[6]; then peracid 300 ppm 5 min", "result": "2.0 × 10^5"}, {"measurement": "Log Reduction", "setting": "[6]; then peracid 300 ppm 5 min", "result": 1.36}, {"measurement": "Average Log", "setting": "[6]; then peracid 500 ppm 5 min", "result": 3.38}, {"measurement": "Average Survivors", "setting": "[6]; then peracid 500 ppm 5 min", "result": "2.4 × 10^3"}, {"measurement": "Log Reduction", "setting": "[6]; then peracid 500 ppm 5 min", "result": 3.28}, {"measurement": "Fabric Swatch Log Reduction", "setting": "[7]", "result": 3.01}, {"measurement": "Wash Solution Log Reduction", "setting": "[7]", "result": 5.30}]}]}
